Laboratory results: patent EP4741383A1, “COMPOUND AND USE THEREOF AS ANTI-CANCER DRUG” (Tyligand Bioscience (Shanghai) Limited, priority 2023, dated 2025)

Assays:
KYSE520 = assay: CellTiter-Glo cell proliferation inhibition, KYSE520; type: cell-based, human; details: for IC50: Homo sapiens, KYSE-520, KYSE520 cells, 120 hours, CellTiter-Glo
Source text: In this study, the CellTiter-Glo® Luminescent Cell Viability Assay kit from Promega was used to evaluate the inhibitory effects of the disclosed compounds on the proliferation of cell lines KYSE520 (a human esophageal squamous cell carcinoma cell line dependent on SHP2 for growth), MeWo (a human malignant melanoma cell line), and MV4-11 (an RTK-mutant human acute monocytic leukemia cell line).
KYSE520 cells (Nanjing Kebaio Biotechnology Co., Ltd., Catalog #CBP60658) were thawed by rapidly shaking the cryovial in a 37 °C water bath to thaw within 1 minute. The thawed cell suspension was mixed homogeneously with RPMI 1640 medium (HyClone, Catalog #SH30027.01) containing 10% FBS (ExCell, Catalog #FND500), centrifuged at 1000 rpm for 5 minutes, and the supernatant was discarded. The cell pellet was resuspended in 5 mL of complete culture medium (RPMI 1640 medium containing 10% FBS) and placed in a cell culture flask with 25 cm^2 of bottom area, then cultured in a cell culture incubator at 37 °C, 95% humidity, and 5% CO2. Cell passaging was performed when the cell confluence reached approximately 80%. During cell passaging, the old culture medium was discarded, the cells were washed once with DPBS (Thermo Fisher, Catalog #14190-144), and 1 mL of trypsin (Thermo Fisher, Catalog #25200072) was added to digest the cells. When the cells dispersed into single cells and detached from the bottom of the culture flask, 3 mL of fresh complete culture medium was added to stop the digestion. After gently pipetting the cell suspension, 1/5 of the cell suspension was retained, 5 mL of fresh complete culture medium was added, and after mixing, the cells were placed in a cell culture flask for further culture. Cell plating was performed when the cell confluence again reached approximately 80%. During cell plating, following the cell passaging method, 1/5 of the cell suspension was retained for continued culture, and the remaining 4/5 of the cell suspension was placed in a 15 mL centrifuge tube. Cell viability was determined using the trypan blue exclusion method to ensure that cell viability was above 90%. A cell suspension with a density of 2.22 × 10^4 cells/mL was prepared using complete culture medium, and 135 µL of the cell suspension was added to a 96-well transparent flat-bottom black-walled cell culture plate (Greiner, Catalog #655090), resulting in a cell density of 3000 viable cells per well. A control group containing only complete culture medium without cells and compounds (i.e., culture medium control) and a control group containing cells but no compound (i.e., cell control) were set up. The cell plates were incubated overnight in a cell culture incubator. First, a 10 mM stock solution of the compound (Example compound and positive control compound 11a-1) in DMSO (Damas-beta, catalog #75927R) was serially diluted 3-fold to the 9th concentration, and a 10th concentration containing only DMSO (without compound) was also prepared as a control. Then, the DMSO solutions containing different concentrations of the compound were diluted 100-fold with complete culture medium, resulting in a 1% DMSO concentration in each solution. Finally, 15 µL of each solution was added to the corresponding wells of the cell culture plate, resulting in a starting compound concentration of 10 µM, with a 3-fold dilution between adjacent concentrations, and a final DMSO concentration of 0.1% in the cell culture plate. The cell plates were then incubated in the cell culture incubator for another 120 hours.
For endpoint detection, CellTiter-Glo reagent (Promega, catalog number #G7573, CellTiter-Glo® Luminescent Cell Viability Assay Kit) was melt and each cell plate was moved to room temperature for equilibration for 30 minutes. 75 µL (KYSE520 cells) or 50 µL (MeWo cells and MV 4-11 cells) of CellTiter-Glo was added to each well of the corresponding cell plate. The plates were shaken on a track-mounted shaker for 2 minutes to fully lyse the cells. […]

[1] = target: T1, SHP2 enzyme (catalytic domain, amino acid sequence 224-528) (Homo sapiens, UniProt Q06124); assay: SHP2 enzyme inhibition assay (DiFMUP substrate, fluorescence); type: biochemical; details: for IC50: SHP2 catalytic domain, DiFMUP substrate, 30 min pre-incubation, read-out: S HP2 I C50; for SHP2 IC50 times lower than control compound 11a-1: relative to 11a-1, IC50 = 0.108 µM
T1 construct: purchased GenScript
T1 sequence (Q06124 224-528): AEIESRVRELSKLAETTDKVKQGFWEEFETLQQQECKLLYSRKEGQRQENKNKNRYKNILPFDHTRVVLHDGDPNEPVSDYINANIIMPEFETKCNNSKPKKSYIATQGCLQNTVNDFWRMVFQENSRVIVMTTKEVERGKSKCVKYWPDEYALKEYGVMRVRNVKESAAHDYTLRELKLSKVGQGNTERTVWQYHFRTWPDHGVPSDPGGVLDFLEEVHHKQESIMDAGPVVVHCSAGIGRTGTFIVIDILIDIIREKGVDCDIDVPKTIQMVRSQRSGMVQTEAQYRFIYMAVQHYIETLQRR
Procedure, shortened: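 SHP2 catalytic domain (aa 224-528) preincubated 30 min at room temperature with compounds (10-point 3-fold series) in HEPES pH 7.2 buffer with NaCl, EDTA, DTT, BSA, Brij35. DiFMUP from 50 µM working solution added, 5 min reaction; fluorescence 340/450 nm; IC50 from nonlinear dose-response fit.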

Row | SMILES | IC50 [1] [nM] | SHP2 IC50 times lower than control compound 11a-1 [1] | IC50 (KYSE520) [µM] | IC50 against KYSE-520 cells, fold lower than 11a-1 (KYSE520; relative to 11a-1 (1.23 µM)) [fold]
1 | O=C(Nc1ccc(-c2csc(CO)c2)cc1)C(=O)Nc1ccc(-c2cc3cc(F)c(-c4nnn[nH]4)cc3n2C2CCC2)cc1 [Example 1] | 66 |  | 0.095 | 
2 | N#CCc1cc(-c2ccc(NC(=O)C(=O)Nc3ccc(-c4cc5cc(F)c(-c6nnn[nH]6)cc5n4C4CCC4)cc3)cc2)cs1 [Example 2] | 64 |  | 0.141 | 
3 | O=C(Nc1ccc(-c2ccsc2)cc1)C(=O)Nc1ccc(-c2cc3cc(F)c(-c4nnn[nH]4)cc3n2C2CCC2)cc1 [Example 4] | 29 | 3-4 times |  | 
4 | CC1(n2c(-c3ccc(NC(=O)C(=O)Nc4ccc(-c5cnn(C6COC6)c5)cc4)cc3)cc3cc(F)c(-c4nnn[nH]4)cc32)CC1 [Example 6] | 73 |  | 0.065 | 
5 | CC1(n2c(-c3ccc(NC(=O)C(=O)Nc4ccc(-c5cnn(C6CCOCC6)c5)cc4)cc3)cc3cc(F)c(-c4nnn[nH]4)cc32)CC1 [Example 7] | 49 |  | 0.071 | 
6 | Cn1c(-c2cccc(NC(=O)C(=O)Nc3ccc(-c4ccsc4)cc3)c2)c(I)c2cc(C(=O)O)c(O)cc21 [Example 11a-1, reference compound] | 108 |  | 1.23 | 
7 | O=C(Nc1ccc(-c2cc3cc(F)c(-c4nnn[nH]4)cc3n2C2CCC2)cc1)C(=O)Nc1ccc(N2CCC(CO)C2)cc1 (stereo not shown) [Example 12] | 48 |  | 0.121 | 
8 | O=C(Nc1ccc(-c2cc3cc(F)c(-c4nnn[nH]4)cc3n2C2CCC2)cc1)C(=O)Nc1ccc(N2CCC(CCO)C2)cc1 (stereo not shown) [Example 14] | 45 |  | 0.113 | 
9 | CC1(CO)CCN(c2ccc(NC(=O)C(=O)Nc3ccc(-c4cc5cc(F)c(-c6nnn[nH]6)cc5n4C4CCC4)cc3)cc2)C1 (stereo not shown) [Example 16] | 48 |  | 0.151 | 
10 | O=C(Nc1ccc(-c2cc3cc(F)c(-c4nnn[nH]4)cc3n2C2CCC2)cc1)C(=O)Nc1ccc(N2CCC(C3COC3)CC2)cc1 [Example 20] | 27 | 3-4 times | 0.036 | 34
11 | O=C(Nc1ccc(-c2cc3cc(F)c(-c4nnn[nH]4)cc3n2C2CCC2)cc1)C(=O)Nc1ccc(N2CCC(CO)CC2)cc1 [Example 23] | 102 |  |  | 
12 | O=C(Nc1ccc(-c2cc3cc(F)c(-c4nnn[nH]4)cc3n2C2CCC2)cc1)C(=O)Nc1ccc(N2CCC(CCO)CC2)cc1 [Example 25] | 59 |  | 0.056 | 
13 | CC(O)C1CCN(c2ccc(NC(=O)C(=O)Nc3ccc(-c4cc5cc(F)c(-c6nnn[nH]6)cc5n4C4CCC4)cc3)cc2)CC1 (stereo not shown) [Example 29] | 48 |  | 0.076 | 
14 | CC(C)(O)C1CCN(c2ccc(NC(=O)C(=O)Nc3ccc(-c4cc5cc(F)c(-c6nnn[nH]6)cc5n4C4CCC4)cc3)cc2)CC1 [Example 33] | 41 |  | 0.042 | 
15 | O=C(Nc1ccc(-c2cc3cc(F)c(-c4nnn[nH]4)cc3n2C2CCC2)cc1)C(=O)Nc1ccc(N2CCOCC2)cc1 [Example 47] | 63 |  |  | 
16 | O=C(Nc1ccc(-c2cc3cc(F)c(-c4nnn[nH]4)cc3n2C2CCC2)cc1)C(=O)Nc1ccc(N2CCC3(CC(O)C3)C2)cc1 (stereo not shown) [Example 89] | 157 |  | 0.062 | 
17 | O=C(Nc1ccc(-c2cc3cc(F)c(-c4nnn[nH]4)cc3n2C2CCC2)cc1)C(=O)Nc1ccc(N2CCC3(CCC(O)C3)C2)cc1 (stereo not shown) [Example 92] | 51 |  | 0.13 | 
18 | O=C(Nc1ccc(-c2ccsc2)cc1)C(=O)Nc1ccc(-c2cc3cnc(-c4nnn[nH]4)nc3n2C2CCC2)cc1 [Example 131] | 26 |  |  | 

Continued, in another order:

Row | IC50 [1] [nM] | SHP2 IC50 times lower than control compound 11a-1 [1] | SMILES | IC50 (KYSE520) [µM] | IC50 against KYSE-520 cells, fold lower than 11a-1 (KYSE520; relative to 11a-1 (1.23 µM)) [fold]
19 | 61 |  | CC1(n2c(-c3ccc(NC(=O)C(=O)Nc4ccc(N5CCC(CCO)CC5)cc4)cc3)cc3cc(F)c(-c4nnn[nH]4)cc32)CCC1 [Example 26] | 0.126 | 
20 | 60 |  | CC1(CO)CCN(c2ccc(NC(=O)C(=O)Nc3ccc(-c4cc5cc(F)c(-c6nnn[nH]6)cc5n4C4CCC4)cc3)cc2)CC1 [Example 40] | 0.168 | 
21 | 45 |  | O=C(Nc1ccc(-c2cc3cc(F)c(-c4nnn[nH]4)cc3n2C2CCC2)cc1)C(=O)Nc1ccc(N2CC3(CCCOC3)C2)cc1 [Example 55] | 0.108 | 
22 | 68 |  | O=C(Nc1ccc(-c2cc3cc(F)c(-c4nnn[nH]4)cc3n2C2CCC2)cc1)C(=O)Nc1ccc(N2CC3(CCOCC3)C2)cc1 [Example 57] | 0.164 | 
23 | 62 |  | O=C(Nc1ccc(-c2cc3cc(F)c(-c4nnn[nH]4)cc3n2C2CCC2)cc1)C(=O)Nc1ccc(N2CCC3(COC3)C2)cc1 [Example 59] | 0.119 | 
24 | 41 |  | O=C(Nc1ccc(-c2cc3cc(F)c(-c4nnn[nH]4)cc3n2C2CCC2)cc1)C(=O)Nc1ccc(N2CCC3(CCOC3)C2)cc1 (stereo not shown) [Example 61] | 0.126 | 
25 | 65 |  | O=C(Nc1ccc(-c2cc3cc(F)c(-c4nnn[nH]4)cc3n2C2CCC2)cc1)C(=O)Nc1ccc(N2CCC3(CCCOC3)C2)cc1 (stereo not shown) [Example 62] | 0.193 | 
26 | 34 | 3-4 times | O=C(Nc1ccc(-c2cc3cc(F)c(-c4nnn[nH]4)cc3n2C2CCC2)cc1)C(=O)Nc1ccc(N2CCC3(CCOC3)CC2)cc1 [Example 67] | 0.086 | 
27 | 48 |  | CC1(n2c(-c3ccc(NC(=O)C(=O)Nc4ccc(N5CCC6(CCOC6)CC5)cc4)cc3)cc3cc(F)c(-c4nnn[nH]4)cc32)CCC1 [Example 68] | 0.057 | 
28 | 46 |  | O=C(Nc1ccc(-c2cc3cc(F)c(-c4nnn[nH]4)cc3n2C2CC2)cc1)C(=O)Nc1ccc(N2CCC3(CCOC3)CC2)cc1 [Example 69] | 0.189 | 
29 | 50 |  | CC1(n2c(-c3ccc(NC(=O)C(=O)Nc4ccc(N5CCC6(CCOC6)CC5)cc4)cc3)cc3cc(F)c(-c4nnn[nH]4)cc32)CC1 [Example 70] | 0.085 | 
30 | 65 |  | O=C(Nc1ccc(-c2cc3cc(F)c(-c4nnn[nH]4)cc3n2C2CCC2)cc1)C(=O)Nc1ccc(N2CCC3(CCCOC3)CC2)cc1 [Example 74] | 0.116 | 
31 | 40 |  | O=C(Nc1ccc(-c2cc3cc(F)c(-c4nnn[nH]4)cc3n2C2CCC2)cc1)C(=O)Nc1ccc(N2CCC3(CCOCC3)CC2)cc1 [Example 76] | 0.096 | 
32 | 20 | 3-4 times | CC1(n2c(-c3ccc(NC(=O)C(=O)Nc4ccc(N5CCC6(CCOCC6)CC5)cc4)cc3)cc3cc(F)c(-c4nnn[nH]4)cc32)CCC1 [Example 77] | 0.049 | 
33 | 58 |  | CC1(O)CCC2(CC1)CN(c1ccc(NC(=O)C(=O)Nc3ccc(-c4cc5cc(F)c(-c6nnn[nH]6)cc5n4C4CCC4)cc3)cc1)C2 [Example 83] | 0.163 | 
34 | 31 | 3-4 times | CC1(O)CC2(CCN(c3ccc(NC(=O)C(=O)Nc4ccc(-c5cc6cc(F)c(-c7nnn[nH]7)cc6n5C5CCC5)cc4)cc3)CC2)C1 [Example 94] | 0.115 | 
